Results published in ChEMBL document CHEMBL1130385, “Synthesis and biological activities of conformationally restricted, tricyclic nonclassical antifolates as inhibitors of dihydrofolate reductases” (J Med Chem, 1997).

Assays:
[1] = biological target: T1, Bifunctional dihydrofolate reductase-thymidylate synthase (Toxoplasma gondii, UniProt Q07422); experiment: Inhibitory concentration against Toxoplasma gondii Dihydrofolate reductase
T1 sequence (Q07422 whole entry): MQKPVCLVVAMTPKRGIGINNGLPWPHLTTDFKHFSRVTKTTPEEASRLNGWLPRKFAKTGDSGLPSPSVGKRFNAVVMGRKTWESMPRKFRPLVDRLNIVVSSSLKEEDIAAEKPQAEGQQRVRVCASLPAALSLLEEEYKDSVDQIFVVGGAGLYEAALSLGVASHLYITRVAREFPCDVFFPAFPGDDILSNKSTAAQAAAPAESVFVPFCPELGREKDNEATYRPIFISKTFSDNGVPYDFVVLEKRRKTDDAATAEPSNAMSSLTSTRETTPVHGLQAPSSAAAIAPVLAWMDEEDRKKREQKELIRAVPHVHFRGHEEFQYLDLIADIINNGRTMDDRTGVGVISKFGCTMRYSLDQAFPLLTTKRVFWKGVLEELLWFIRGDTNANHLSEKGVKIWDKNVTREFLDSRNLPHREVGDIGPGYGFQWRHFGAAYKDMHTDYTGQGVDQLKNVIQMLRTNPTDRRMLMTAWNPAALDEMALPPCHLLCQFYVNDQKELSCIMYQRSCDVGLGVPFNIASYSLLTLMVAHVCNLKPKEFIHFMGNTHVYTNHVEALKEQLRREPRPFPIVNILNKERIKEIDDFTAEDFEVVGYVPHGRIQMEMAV

Dihydrofolate reductase [2] = biological target: T2, Dihydrofolate reductase (Rattus norvegicus, UniProt Q920D2)
T2 sequence (Q920D2 whole entry): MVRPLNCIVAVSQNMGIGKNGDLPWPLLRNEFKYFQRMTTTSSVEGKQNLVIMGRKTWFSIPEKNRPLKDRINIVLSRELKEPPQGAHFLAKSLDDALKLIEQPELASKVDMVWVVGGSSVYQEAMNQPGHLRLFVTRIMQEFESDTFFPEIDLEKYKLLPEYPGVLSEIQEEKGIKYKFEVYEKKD
Description: Inhibitory concentration against Rat liver Dihydrofolate reductase

Dihydrofolate reductase [3] = biological target: T3, Dihydrofolate reductase (Pneumocystis carinii, UniProt P16184)
T3 sequence (P16184 whole entry): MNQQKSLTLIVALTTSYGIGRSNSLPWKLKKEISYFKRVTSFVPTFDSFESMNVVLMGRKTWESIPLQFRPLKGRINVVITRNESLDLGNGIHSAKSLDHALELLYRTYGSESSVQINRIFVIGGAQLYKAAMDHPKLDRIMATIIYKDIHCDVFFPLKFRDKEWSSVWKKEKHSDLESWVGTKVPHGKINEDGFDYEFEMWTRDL
Description: Inhibitory concentration against Pneumocystis carinii Dihydrofolate reductase

IC50 (Dihydrofolate reductase [3]) | Structure (SMILES) | IC50 [1] | IC50 (Dihydrofolate reductase [2])
– | COc1cc(N2C=C3C(=O)N=c4nc(N)nc(N)c4=C3CC2)cc(OC)c1OC | 1.12 µM | 0.24 µM
– | COc1cc(N2CCC3c4c(N)nc(N)nc4NCC3C2)cc(OC)c1OC (centres undefined) | 0.29 µM | 0.16 µM
– | COc1c(Cl)c(-n2ccc3c4c(N)nc(N)nc4nc(=O)c-3c2)c(Cl)c(OC)c1OC | – | 0.5 µM
> 2.27 µM | COc1cc(N2CCc3c(cnc4nc(N)nc(N)c34)C2)cc(OC)c1OC | – | > 2.7 µM
– | COc1cc(N2C=Cc3c(cnc4nc(N)nc(N)c34)C2)cc(OC)c1OC | 0.76 µM | 0.47 µM
> 5 µM | COc1cc(N2CCc3c(c(=O)[nH]c4nc(N)nc(N)c34)C2)cc(OC)c1OC | – | > 5 µM

Structure (SMILES) | IC50 (Dihydrofolate reductase [3]) | IC50 [1] | IC50 (Dihydrofolate reductase [2])
COc1cc(-n2ccc3c4c(N)nc(N)nc4nc(=O)c-3c2)cc(OC)c1OC | 2.4 µM | 0.52 µM | 0.086 µM
